Test results as given in patent US9266842B2, “Anti-malarial agents” (UNIVERSITY OF CAPE TOWN, priority 2012, dated 2016).
Values after ≈ are worked out from the molar mass of the structure shown.

How the values were obtained:
[1] = system: P. falciparum K1; assay: Anti-malarial in vitro efficacy, assay 1, P. falciparum K1; assay type: cell-based; details: Plasmodium falciparum, strain K1
Description: (§1) The ability of aminopyrazine derivatives according to the invention to kill P. falciparum parasites and/or to inhibit its proliferation is tested as follows:
(§2) The protocol used was as described in the supplemental material to Fiddock et al., 2004, Nature Reviews Drug Discovery, (3), p 509.
(§3) EC50s (ng/ml) are reported in Table 3 below against different strains of P. falciparum K1, NF54 (assay 1).

[2] = system: P. falciparum NF54; assay: Anti-malarial in vitro efficacy, assay 1, P. falciparum NF54; assay type: cell-based; details: Plasmodium falciparum, strain NF54
Description: as §1, §2, §3

[3] = system: parasitemia; assay: Anti-malarial in vivo efficacy, inhibition of parasitemia after 4 daily oral doses; details: for inhibition in vivo at 3 mg/kg: read-out: percentages of inhibition of parasitemia, 3 mg/kg po; for inhibition in vivo at 10 mg/kg: read-out: percentages of inhibition of parasitemia, 10 mg/kg po
Excerpt: The ability of aminopyrazine derivatives according to the invention to show antimalarial efficacy in vivo can be tested by using the protocols described in the supplemental material to Fidock et al., 2004, Nature Reviews Drug Discovery, (3), p 509.

| SMILES | EC50 [1] [ng/mL] | EC50 [2] [ng/mL] | inhibition in vivo at 3 mg/kg [3] [%] | inhibition in vivo at 10 mg/kg [3] [%] |
| --- | --- | --- | --- | --- |
| Nc1ncc(-c2ccc(C(=O)N3CCNCC3)cc2)nc1-c1ccc(C(F)(F)F)cc1 [Compound 8, (4-(5-amino-6-(4-(trifluoromethyl)phenyl)pyrazin-2-yl)phenyl)(piperazin-1-yl)methanone] | 2.1 (≈ 4.91 nM) | 2.3 (≈ 5.38 nM) | 99.9 | 99.9 |
| NC(=O)c1ccc(-c2cnc(N)c(-c3ccc(C(F)(F)F)c(F)c3)n2)cc1 [Compound 13, 4-(5-amino-6-(3-fluoro-4-(trifluoro-methyl)phenyl)pyrazin-2-yl) benzamide] | 18 (≈ 47.8 nM) | 18 (≈ 47.8 nM) | 99.9 | 99.9 |
| Nc1ncc(-c2ccc(C(=O)N3CCOCC3)cc2)nc1-c1ccc(C(F)(F)F)cc1 [Compound 11, (4-(5-amino-6-(4-(trifluoromethyl)phenyl)pyrazin-2-yl)phenyl)(morpholino)methanone] | 3.1 (≈ 7.24 nM) |  |  |  |
| NC(=O)c1ccc(-c2cnc(N)c(-c3ccc(C(F)(F)F)cc3)n2)cc1 [Compound 4, 4-(5-amino-6-(4-(trifluoromethyl)phenyl)pyrazin-2-yl)benzamide] | 4.9 (≈ 13.7 nM) | 5.7 (≈ 15.9 nM) | 99.9 | 99.9 |
| CS(=O)(=O)c1ccc(-c2cnc(N)c(-c3ccc(C(F)(F)F)cc3)n2)cc1 [Compound 2, 5-(4-(methylsulfonyl)phenyl)-3-(4-(trifluoromethyl)phenyl)pyrazin-2-amine] | 4 (≈ 10.2 nM) |  |  |  |
| CN1CCN(C(=O)c2ccc(-c3cnc(N)c(-c4ccc(C(F)(F)F)cc4)n3)cc2)CC1 [Compound 6, (4-(5-amino-6-(4-(trifluoromethyl)phenyl)pyrazin-2-yl)phenyl)(4-methylpiperazin-1-yl) methanone] | 3 (≈ 6.8 nM) | 3.5 (≈ 7.93 nM) | 99.9 | 99.9 |
| NC(=O)c1ccc(-c2cnc(N)c(-c3ccc(C(N)=O)cc3)n2)cc1 [Compound 15, 4,4′-(3-aminopyrazine-2,6-diyl) dibenzamide] | 7.1 (≈ 21.3 nM) | 8.5 (≈ 25.5 nM) |  |  |
| NC(=O)c1ccc(-c2cnc(N)c(-c3ccc(C(F)(F)F)nc3)n2)cc1 [Compound 5, 4-(5-amino-6-(6-(trifluoromethyl)pyridin-3-yl)pyrazin-2-yl)benzamide] | 5.8 (≈ 16.1 nM) | 7.8 (≈ 21.7 nM) | 99.4 | 99.9 |
| COc1ccc(-c2nc(-c3ccc(S(C)(=O)=O)cc3)cnc2N)cn1 [Compound 1, 3-(6-methoxypyridin-3-yl)-5-(4-(methylsulfonyl)phenyl)pyrazin-2-amine] | 17 (≈ 47.7 nM) |  |  |  |
| CN1CCCN(C(=O)c2ccc(-c3cnc(N)c(-c4ccc(C(F)(F)F)nc4)n3)cc2)CC1 [Compound 12, (4-(5-amino-6-(6-(trifluoromethyl)pyridin-3-yl)pyrazin-2-yl)phenyl)(4-methyl-1,4-diazepan-1-yl)methanone] | 4.5 (≈ 9.86 nM) | 6.9 (≈ 15.1 nM) | 99.9 |  |
| CN1CCN(C(=O)c2ccc(-c3cnc(N)c(-c4ccc(C(F)(F)F)nc4)n3)cc2)CC1 [Compound 7, (4-(5-amino-6-(6-(trifluoromethyl)pyridin-3-yl)pyrazin-2-yl)phenyl)(4-methylpiperazin-1-yl)methanone] | 4.4 (≈ 9.94 nM) | 4.4 (≈ 9.94 nM) | 81 | 99.8 |
| CC(C)(C)N1CCN(C(=O)c2ccc(-c3cnc(N)c(-c4ccc(C(F)(F)F)cc4)n3)cc2)CC1 [Compound 20, (4-(5-amino-6-(4-(trifluoromethyl)phenyl)pyrazin-2-yl)phenyl)(4-tert-butylpiperazin-1-yl)methanone] | 5.5 (≈ 11.4 nM) | 8.2 (≈ 17 nM) |  |  |
| Nc1ncc(-c2ccc(C(=O)N3CCNCC3)cc2)nc1-c1ccc(C(F)(F)F)nc1 [Compound 9, (4-(5-amino-6-(6-(trifluoromethyl)pyridin-3-yl)pyrazin-2-yl)phenyl)(piperazin-1-yl) methanone] | 4 (≈ 9.34 nM) | 4.6 (≈ 10.7 nM) |  |  |
| Nc1ncc(-c2ccc(C(=O)N3CCOCC3)cc2)nc1-c1ccc(C(F)(F)F)nc1 [Compound 10, (4-(5-amino-6-(6-(trifluoromethyl)pyridin-3-yl)pyrazin-2-yl)phenyl) (morpholino) methanone] | 4.1 (≈ 9.55 nM) |  |  |  |
| Nc1ncc(-c2ccc(C(=O)N3CCC(O)CC3)cc2)nc1-c1ccc(C(F)(F)F)nc1 [Compound 22, (4-(5-amino-6-(6-(trifluoromethyl)pyridin-3-yl)pyrazin-2-yl)phenyl)(4-hydroxypiperidin-1-yl)methanone] | 4 (≈ 9.02 nM) | 4.5 (≈ 10.1 nM) |  |  |
| Nc1ncc(-c2ccc(C(=O)N3CCC(O)C3)cc2)nc1-c1ccc(C(F)(F)F)cc1 (centres unmarked) [Compound 21, (4-(5-amino-6-(4-(trifluoromethyl)phenyl)pyrazin-2-yl)phenyl)(3-hydroxypyrrolidin-1-yl)methanone] | 2.9 (≈ 6.77 nM) | 4.1 (≈ 9.57 nM) | 99.6 |  |
| CS(=O)(=O)c1ccc(-c2cnc(N)c(-c3ccc(C(F)(F)F)nc3)n2)cc1 [Compound 3, 5-(4-(methylsulfonyl)phenyl)-3-(6-(trifluoromethyl)pyridin-3-yl)pyrazin-2-amine] | 4.8 (≈ 12.2 nM) |  |  |  |

More lines, main results first:

| EC50 [1] [ng/mL] | EC50 [2] [ng/mL] | SMILES | inhibition in vivo at 3 mg/kg [3] [%] | inhibition in vivo at 10 mg/kg [3] [%] |
| --- | --- | --- | --- | --- |
| 7.6 (≈ 17.2 nM) | 8.5 (≈ 19.2 nM) | Nc1ncc(-c2ccc(C(=O)N3CCC(N)CC3)cc2)nc1-c1ccc(C(F)(F)F)nc1 [Compound 31, (4-(5-amino-6-(6-(trifluoromethyl)pyridin-3-yl)pyrazin-2-yl)phenyl)(4-aminopiperidinyl)methanone] |  |  |
|  | 3.2 (≈ 7.47 nM) | Nc1ncc(-c2ccc(C(=O)N3CC[C@@H](O)C3)cc2)nc1-c1ccc(C(F)(F)F)cc1 [Compound 35, (R)-(4-(5-amino-6-(4-(trifluoro-methyl)phenyl)pyrazin-2-yl)phenyl)(3-hydroxypyrrolidin-1-yl) methanone] | 99.9 | 99.9 |
| 10 (≈ 23.3 nM) | 17 (≈ 39.7 nM) | Nc1ncc(-c2ccc(C(=O)N3CCC(N)C3)cc2)nc1-c1ccc(C(F)(F)F)nc1 (centres unmarked) [Compound 28, (4-(5-amino-6-(6-(trifluoromethyl)pyridin-3-yl)pyrazin-2-yl)phenyl)(3-aminopyrrolidin-1-yl)methanone] |  |  |
| 2.9 (≈ 6.57 nM) | 4.3 (≈ 9.74 nM) | Nc1ncc(-c2ccc(C(=O)N3CCC(N)CC3)cc2)nc1-c1ccc(C(F)(F)F)cc1 [Compound 32, (4-(5-amino-6-(4-(trifluoromethyl)phenyl)pyrazin-2-yl)phenyl)(4-aminopiperidinyl)methanone] |  |  |
| 2.2 (≈ 4.97 nM) | 2.4 (≈ 5.42 nM) | Nc1ncc(-c2ccc(C(=O)N3CCC(O)CC3)cc2)nc1-c1ccc(C(F)(F)F)cc1 [Compound 23, (4-(5-amino-6-(4-(trifluoromethyl)phenyl)pyrazin-2-yl)phenyl)(4-hydroxypiperidin-1-yl)methanone] | 98.7 |  |
| 3.1 (≈ 6.4 nM) | 4.3 (≈ 8.87 nM) | CC(C)(C)N1CCN(C(=O)c2ccc(-c3cnc(N)c(-c4ccc(C(F)(F)F)nc4)n3)cc2)CC1 [Compound 24, (4-(5-amino-6-(6-(trifluoromethyl)pyridin-3-yl)pyrazin-2-yl)phenyl)(4-(tert-butyl)piperazin-1-yl)methanone] | 87.6 |  |
| 4.8 (≈ 11.2 nM) | 8.8 (≈ 20.6 nM) | Nc1ncc(-c2ccc(C(=O)N3CCC(N)C3)cc2)nc1-c1ccc(C(F)(F)F)cc1 (centres unmarked) [Compound 29, (4-(5-amino-6-(4-(trifluoromethyl)phenyl)pyrazin-2-yl)phenyl)(3-aminopyrrolidin-1-yl)methanone] |  |  |
| 2.6 (≈ 5.71 nM) | 3.1 (≈ 6.81 nM) | CN1CCCN(C(=O)c2ccc(-c3cnc(N)c(-c4ccc(C(F)(F)F)cc4)n3)cc2)CC1 [Compound 25, (4-(5-amino-6-(4-(trifluoromethyl)phenyl)pyrazin-2-yl)phenyl)(4-methyl-1,4-diazepan-1-yl)methanone] | 90 |  |
| 4 (≈ 9.51 nM) |  | Nc1ncc(-c2ccc(S(=O)(=O)C3CC3)cc2)nc1-c1ccc(C(F)(F)F)nc1 [Compound 34, 5-(4-(cyclopropylsulfonyl)phenyl)-3-(6-(trifluoromethyl)pyridin-3-yl) pyrazin-2-amine] |  |  |
|  | 2.6 (≈ 6.07 nM) | Nc1ncc(-c2ccc(C(=O)N3CC[C@H](O)C3)cc2)nc1-c1ccc(C(F)(F)F)cc1 [Compound 36, (S)-(4-(5-amino-6-(4-(trifluoro-methyl)phenyl)pyrazin-2-yl)phenyl)(3-hydroxypyrrolidin-1-yl)methanone] | 99.9 | 99.9 |
| 5.2 (≈ 12.1 nM) | 8.6 (≈ 20 nM) | Nc1ncc(-c2ccc(C(=O)N3CCC(O)C3)cc2)nc1-c1ccc(C(F)(F)F)nc1 (centres unmarked) [Compound 30, (4-(5-amino-6-(6-(trifluoromethyl)pyridin-3-yl)pyrazin-2-yl)phenyl)(3-hydroxypyrrolidin-1-yl)methanone] |  |  |
| 4.3 (≈ 9.72 nM) | 5.9 (≈ 13.3 nM) | Nc1ncc(-c2ccc(C(=O)N3CCCNCC3)cc2)nc1-c1ccc(C(F)(F)F)nc1 [Compound 26, (4-(5-amino-6-(6-(trifluoromethyl)pyridin-3-yl)pyrazin-2-yl)phenyl) (1,4-diazepan-1-yl)methanone] |  |  |
| 2.2 (≈ 4.98 nM) | 3.2 (≈ 7.25 nM) | Nc1ncc(-c2ccc(C(=O)N3CCCNCC3)cc2)nc1-c1ccc(C(F)(F)F)cc1 [Compound 27, (4-(5-amino-6-(4-(trifluoromethyl)phenyl)pyrazin-2-yl)phenyl)(1,4-diazepan-1-yl)methanone] | 88 |  |
